Tests used:
[1] = target: T1, N-lysine methyltransferase SMYD2 (Homo sapiens, UniProt Q9NRG4); experiment: Inhibition of SMYD2 (unknown origin) assessed as residual activity at 10 uM using 3H-SAM as substrate incubated for 1 hr by filter binding method relative to control
[2] = target: T1, N-lysine methyltransferase SMYD2; experiment: Inhibition of SMYD2 (unknown origin) using 3H-SAM as substrate incubated for 1 hr by filter binding method
[3] = system: MDA-MB-231; experiment: Antiproliferative activity against human MDA-MB-231 cells assessed as inhibition of cell growth incubated for 72 hrs by CellTiter-Glo luminescent cell viability assay; assay type: functional, cell-based; conditions: MDA-MB-231, 72 h
[4] = system: Ca-Ski; experiment: cells; assay type: functional, cell-based; conditions: Homo sapiens, 72 h
Description: Antiproliferative activity against human Ca-Ski cells assessed as inhibition of cell growth incubated for 72 hrs by CellTiter-Glo luminescent cell viability assay

[5] = system: HEK293; experiment: Induction of apoptosis in HEK293 cells assessed as increase in cleaved PARP level at 0.0195 to 10 uM incubated for 24 hrs by immunoblot analysis; assay type: toxicity, cell-based; conditions: human, hek293, 24 h, dose 0.0195-10 µM
[6] = target: Glycogen synthase kinase-3 beta (Homo sapiens, UniProt P49841); experiment: Inhibition of GSK3beta (unknown origin)
Glycogen synthase kinase-3 beta, sequence (P49841 whole entry): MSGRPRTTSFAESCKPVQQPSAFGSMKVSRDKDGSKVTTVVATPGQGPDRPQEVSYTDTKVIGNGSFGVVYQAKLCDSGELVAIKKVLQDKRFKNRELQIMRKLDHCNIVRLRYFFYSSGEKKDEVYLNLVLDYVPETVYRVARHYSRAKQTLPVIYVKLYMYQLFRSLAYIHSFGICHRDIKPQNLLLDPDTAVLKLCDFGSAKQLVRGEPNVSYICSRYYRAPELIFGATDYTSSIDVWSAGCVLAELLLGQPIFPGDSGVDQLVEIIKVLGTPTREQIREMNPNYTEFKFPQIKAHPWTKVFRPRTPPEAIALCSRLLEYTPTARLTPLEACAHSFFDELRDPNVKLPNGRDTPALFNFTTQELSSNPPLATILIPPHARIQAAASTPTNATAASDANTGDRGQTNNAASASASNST

T1 sequence (Q9NRG4 whole entry): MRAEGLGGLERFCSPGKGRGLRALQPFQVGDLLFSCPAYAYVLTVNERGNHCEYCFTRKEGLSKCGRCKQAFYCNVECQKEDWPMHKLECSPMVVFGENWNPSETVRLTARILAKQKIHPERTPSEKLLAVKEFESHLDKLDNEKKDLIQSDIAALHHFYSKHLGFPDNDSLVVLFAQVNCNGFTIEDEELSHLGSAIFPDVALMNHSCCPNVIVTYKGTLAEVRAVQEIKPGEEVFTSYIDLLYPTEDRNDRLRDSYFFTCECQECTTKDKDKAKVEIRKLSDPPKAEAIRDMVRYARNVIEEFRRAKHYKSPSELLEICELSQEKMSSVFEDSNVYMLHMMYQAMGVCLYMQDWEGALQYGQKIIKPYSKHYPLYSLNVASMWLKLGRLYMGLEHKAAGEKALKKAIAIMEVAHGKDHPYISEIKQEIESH

Row | Structure (SMILES) | Activity [1] [%] | IC50 [2] [µM] | also measured
1 | CN1C(=O)C(CCNc2cnc3ccccc3c2)COC12C=CC(=O)C=C2 (centres undefined) | 64.6 | > 20 | –
2 | CC(C)N1C(=O)C(Cc2c(F)cccc2C(F)(F)F)COC12C=CC(=O)C=C2 (centres undefined) | 47.2 | > 20 | –
3 | N#Cc1cccc(-n2cc(CC3COC4(C=CC(=O)C=C4)N(c4ccccc4)C3=O)nn2)c1 (centres undefined) | – | > 30 | –
4 | CN1C(=O)C(CCNc2ccc(C(=O)c3ccccc3)cc2)COC12C=CC(=O)C=C2 (centres undefined) | 44.6 | > 20 | –
5 | COc1ccc(N2CCCCC2)c(NCCC2COC3(C=CC(=O)C=C3)N(C)C2=O)c1 (centres undefined) | 14.2 | 5.55 | –
6 | CC(C)[Si](OCCC1COC2(C=CC(=O)C=C2)N(C)C1=O)(C(C)C)C(C)C (centres undefined) | – | 0.678 | –
7 | CN1C(=O)C(CCO[Si](c2ccccc2)(c2ccccc2)C(C)(C)C)COC12C=CC(=NNc1ccccc1)C=C2 (centres undefined) | – | 5.8 | –
8 | CN1C(=O)C(C/C=N/n2c3ccccc3c3ccccc32)COC12C=CC(=O)C=C2 (centres undefined) | 19.9 | 3.06 | IC50 [3]: 1.08 µM; IC50 [4]: 0.927 µM
9 | CN[C@@H]1C[C@H]2O[C@@](C)([C@@H]1OC)n1c3ccccc3c3c4c(c5c6ccccc6n2c5c31)C(=O)NC4 [STAUROSPORINE] | – | – | IC50 [3]: 0.000858 µM
10 | CN1C(=O)C(CCNc2cccc(Cc3ccccc3)c2)COC12C=CC(=O)C=C2 (centres undefined) | 13.6 | 6.2 | –
11 | O=C1COc2c(CCNCCN(C(=O)CCNCCc3ccc(Cl)c(Cl)c3)C3CCCCC3)ccc(O)c2N1 | – | – | IC50 [3]: 13.1 µM; Activity [5]: Non-Toxic
12 | C=CCC1COC2(C=CC(=O)C=C2)N(C(C)C)C1=O (centres undefined) | 101 | > 20 | –
13 | O=C1COc2c([C@@H](O)CNCCN(C(=O)CCNCCc3ccc(Cl)c(Cl)c3)C3CCCCC3)ccc(O)c2N1 | – | 0.003 | –
14 | CN1C(=O)C(CCO[Si](C)(C)C(C)(C)C)COC12C=CC(=O)C=C2 (centres undefined) | – | > 30 | –
15 | CN1C(=O)C(CCNc2cccnc2)COC12C=CC(=O)C=C2 (centres undefined) | 74.2 | > 20 | –
16 | O=C1C=CC2(C=C1)OCC(Cc1cn(-c3cccc(Cc4ccccc4)c3)nn1)C(=O)N2c1ccccc1 (centres undefined) | – | 3.06 | IC50 [6]: 1.53 µM
17 | CN1C(=O)C(CCNc2cc(C(F)(F)F)cc(C(F)(F)F)c2)COC12C=CC(=O)C=C2 (centres undefined) | 6.94 | 2.13 | IC50 [3]: 0.667 µM; IC50 [4]: 0.785 µM
18 | CC1COC2(C=CC(=O)C=C2)N(C(C)C)C1=O (centres undefined) | 96.5 | > 20 | –

— ChEMBL document CHEMBL5143511, “Positioning of an unprecedented 1,5-oxaza spiroquinone scaffold into SMYD2 inhibitors in epigenetic space” (Eur J Med Chem, 2022)
